Source: patent US20030212034A1, “Method of treatment of obesity and paralyzed muscle and ergogenic aids” (priority 2002, published 2003)

Tests used:
Format in all cases: in vivo, rat
[1] = Muscle weights in 3-day denervated and contralateral control muscles; conditions: same in both treatment groups
Method: Rats were anesthetized with ether and the sciatic nerve of the right hindlimb was severed. The left hindlimb was sham operated to serve as a control. Both skin wounds were closed with a metal clips. The rats used for the acute study were also implanted with a jugular catheter which was exteriorized on the back of the neck at the time of denervation for rapid administration of anesthesia.
Rats were injected either with AICAR (1 mg in 0.9% NaCl/g body weight) or a 0.9% NaCl solution ˜0, ˜24, and ˜48 hours after denervation and were then sacrificed ˜72 hours after denervation without injection. Rats were anesthetized with sodium pentobarbital (4.8 mg/100 g. body weight), soleus and gastrocnemius muscles from both sham and denervated sides were extracted, and muscles were quick frozen in liquid nitrogen and stored for analysis.

GLUT4 = experiment: Muscle GLUT4 by western blot after chronic AICAR injection; conditions: AICAR 1 mg/g 4 weeks, FIG. 5
Method: (§1) To determine the effect of chronic injection of AICAR on muscle enyzme activities or expression and on muscle GLUT4, rats were injected subcutaneously (between 8 and 10 a.m.) with AICAR (1 mg/g) or saline vehicle daily for 28±1 days in succession. Beginning with the first injection, controls were pair fed with AICAR-injected rats. Rats were anesthetized by intraperitoneal injection of pentobarbital sodium 22-25 hours after the last AICAR injection and the white and red regions of the quadriceps and the soleus muscles were removed and frozen as described above. Muscles were kept frozen at −70° C. until analyzed. Liver, heart, kidney, and fat pads were weighed.
For the chronic effects of AICAR injection muscles were analyzed for glycogen GLUT-4, hexokinase, lactate dehydrogenase, and several mitochondrial enzymes. Hassid, W. Z., & S. Abraham Methods Enzymol. 3:35-36, 1957. GLUT4 was quantitated by western blotting as described previously using GLUT4 polyclonal antibody RaIRGT, Biogenesis, Sandown, N.H.) and horseradish peroxidase-conjugated donkey anti-rabbit IgG (Amersham Life Science, Arlington Heights, Ill.). Holmes, B. F., et al. J. Appl Physiol 87:1990-1995, 1999. δ-Aminolevulinic acid synthase was determined using western blotting techniques as described previously. Li, B., et al. J. Biol. Chem. 274:17534-17540, 1999. For determination of cytochrome c, muscles were homogenized in 10 mM n-2-hydroxyethylpiperazine-N′-2-ethanesulfonic acid (HEPES), 1 mM EDTA, and 250 mM sucrose (HES buffer). […] Cytochrome c was detected by incubating the nitrocellulose blots with a rabbit polyclonal antibody against rabbit heart cytochrome c (Alpha Diagnostics International, San Antonio) followed by horseradish peroxidase-conjugated anti-rabbit immunoglobulin G. Antibody bound GLUT4, δ-Aminolevulinic acid synthase, and cytochrome c were visualized using enhanced chemiluminescence. Protein bands were quantified by densitometry.

citrate synthase = experiment: Muscle citrate synthase activity after chronic or intermittent AICAR injection; conditions: for citrate synthase activity vs saline-injected controls: AICAR 4 weeks, FIG. 3
Method: as §1
After obtaining results on blunted acute response to an AICAR injection on AMPK in chronically treated rats, an additional experiment was done to determine if intermittent treatment of rats with AICAR would influence the extent of the increase in citrate synthase. This experiment was also of shorter duration to minimize down regulation that appeared to occur with prolonged treatment. Rats were injected for three days (1 mg/g) followed by two days of no treatment. They were then injected for five days, followed by another two days with no treatment and then for three additional days before killing 20-24 hours following the last injection. Rats were anesthetized and tissues were collected and frozen as before. Analytical methods. Muscles from rats killed 1 h after injection of AICAR or saline were analyzed for AMPK, acetyl-CoA carboxylase (ACC) at 0.2 mM citrate, ATP and CP and ZMP. Li, B., et al. J. Biol. Chem. 274:17534-17540, 1999; Winder, W. W., & D. G. Hardie Am. J. Physiol. 270:E299-E304, 1996; Heinz, F., & H. Weisser. Creatine phosphate. In: Methods of Enzymatic Analysis, edited by H. U. Bergmeyer. New York: Academic, 1983, p. 507-514.
For enzyme activity measurements, 10% homogenates were made from the respective muscles in 175 mM KCl, 10 mM GSH, 2 mM EDTA, pH 7.4. This homogenate was frozen and thawed 3 times and mixed thoroughly prior to enzymatic measurements. For succinate dehydrogenase and lactate dehydrogenase, an aliquot of the homogenate was centrifuged at 700×g for 10 min at 4° C. The remainder of the assays were performed on aliquots and dilutions of the mixed whole homogenate. Assays were performed by the following methods: citrate synthase, succinate dehydrogenase, the mitochondrial fraction of malate dehydrogenase, hexokinase, lactate dehydrogenase, carnitine palmitoyl transferase and hydroxyacyl-CoA dehydrogenase. Srere, P. A. Methods in Enzymology 13:3-6, 1969; King, T. E. Methods Enzymol 10:322-335, 1967; Shonk, C. E. & G. E. Boxer, Cancer Res. 24:709-721, 1964; Uyeda, K., & E. Racker, J. Biol Chem 240:4682-4688, 1965; Pesce, A., et al. J. Biol. Chem. 239:1753-1761, 1964; Baldwin, K. M., et al. Am. J. Physiol 222:373-378, 1972; Mole, P. A., et al. J. Clin. Invest. 50:2323-2330, 1971; Kobayashi, A. et al. J. Biochem. 119:775-782, 1996.

cytochrome c = experiment: Muscle cytochrome c protein by western blot after chronic AICAR injection; conditions: AICAR 4 weeks, FIG. 2
Method: as §1
For the chronic effects of AICAR injection muscles were analyzed for glycogen GLUT-4, hexokinase, lactate dehydrogenase, and several mitochondrial enzymes. Hassid, W. Z., & S. Abraham Methods Enzymol. 3:35-36, 1957. GLUT4 was quantitated by western blotting as described previously using GLUT4 polyclonal antibody RaIRGT, Biogenesis, Sandown, N.H.) and horseradish peroxidase-conjugated donkey anti-rabbit IgG (Amersham Life Science, Arlington Heights, Ill.). Holmes, B. F., et al. J. Appl Physiol 87:1990-1995, 1999. δ-Aminolevulinic acid synthase was determined using western blotting techniques as described previously. Li, B., et al. J. Biol. Chem. 274:17534-17540, 1999. […] Protein bands were quantified by densitometry.

SMILES: NC(=O)c1ncn([C@@H]2O[C@H](CO)[C@@H](O)[C@H]2O)c1N [AICAR, 5-aminoimidazole-4-carboxamide-1-β-D-ribofuranoside]
- loss of muscle mass after 3 days of denervation ([1]; gastrocnemius): ~14%
- loss of muscle mass after 3 days of denervation ([1]; soleus): ~20%
- GLUT4 vs saline-injected controls (GLUT4; red region of the quadriceps): significantly increased
- GLUT4 vs saline-injected controls (GLUT4; soleus, p=0.12): did not reach statistical significance
- GLUT4 vs saline-injected controls (GLUT4; white region of the quadriceps): significantly increased
- citrate synthase activity vs saline-injected controls (citrate synthase; red quadriceps): not in red quadriceps
- citrate synthase (citrate synthase; red region of the quadriceps, intermittent AICAR injections 1 mg/g): 57.4 ± 2.5 µmol/g/min
- citrate synthase activity vs saline-injected controls (citrate synthase; soleus): significantly increased
- citrate synthase activity vs saline-injected controls (citrate synthase; white quadriceps): significantly increased
- citrate synthase increase vs controls (citrate synthase; white quadriceps, intermittent AICAR injections): 48%
- citrate synthase (citrate synthase; white quadriceps, intermittent AICAR injections 1 mg/g (3 days on, 2 off, 5 on, 2 off, 3 on)): 23.0 ± 1.2 µmol/g/min
- cytochrome c protein vs saline controls (cytochrome c; red quadriceps): not in red quadriceps
- cytochrome c protein vs saline controls (cytochrome c; white quadriceps): also increased
